Laboratory results reported in patent EP4351590B1, “A GLUCOSE-METHOTREXATE CONJUGATE FOR USE IN PREVENTING OR TREATING AUTOIMMUNE DISEASES” (Uniwersytet Medyczny Im. Piastów Slaskich We Wroclawiu, priority 2021, dated 2022).
Where two headings read alike, the source gives them in different places.

Key:
[1] = cited from earlier work
unstimulated HaCaT cells = assay: MTT assay, cell viability, non-inflammatory cell model; assay type: cell-based; settings: 10 µM, incubation 48 hours, unstimulated HaCaT (non-inflammatory human keratinocytes), mean of 3 replicates
Procedure: SW982 and HaCaT cells were seeded in a 96-well plate at 10 x 10^3 cells per well. The next day, cells were incubated with TNF-a at a dose of 10 ng/ml to induce inflammation. After 24h, cells were treated with MTX or Glu-MTX at 10 µM dose and incubated for 48h. After 48 hours of incubation, the medium was decanted, and 100 µl of a solution of yellow soluble 3-(4,5-dimethyl-2-thiazolyl)-2,5-diphenyl-2H-tetrazolium bromide (MTT) at a concentration of 0.5-1 mg/ml was added. After 4 hours of incubation, the MTT solution was decanted, and 50 µl/well of DMSO was added. After 3 hours, the optical density of the dissolved formazan was analyzed colorimetrically in a BioTek plate reader.
Since living cells reduce MTT to formazan, the optical density (OD) is highest in control (C) wells which accounted for 100% of cell viability. Viability in wells incubated with compound (COMP) was calculated using the formula: X = 100% x OD COMP/OD C [formula]
Figures 1 and 2 show the results of a viability assessment study (IC50) for TNF-α-stimulated SW982 and HaCaT cell lines treated with methotrexate alone or a glucose-methotrexate (Glu-MTX) derivative. […] The test was also performed on an unstimulated HaCaT cell line, which is the counterpart of non-inflammatory human keratinocytes. […] The study used: 10 µM Glu-MTX, 10 µM Methotrexate; incubation 48 hours; MTT analysis. […]

[2] = cited from earlier work; remark: listed apart in the source

Which bioavailability ([1]; at higher doses) does the source give for `CN(Cc1cnc2nc(N)nc(N)c2n1)c1ccc(C(=O)N[C@@H](CCC(=O)O)C(=O)O)cc1` [MTX, Methotrexate] here?
The bioavailability was 10-20%.

What about the bioavailability ([1]; at low doses) of the same compound?
Its bioavailability is “almost complete”.

And the plasma half-life ([1]; elimination from the circulation via the kidneys)?
The plasma half-life was 5 to 8 h.

And the “cytotoxicity (cell viability)” value (unstimulated HaCaT cells)?
Its value is “much greater cytotoxicity”.

Which solubility in water [2] does the source give for `CN(Cc1nc2c(N)nc(N)nc2[nH]c1=O)c1ccc(C(=O)N[C@@H](CCC(=O)O)C(=O)O)cc1` [7-OH-MTX] here?
Its solubility in water is “sparingly soluble in water”.
